The text below walks through data of patent US20130108653A1, “BIVALENT MOLECULES FOR HIV ENTRY INHIBITION” (priority 2009, published 2013).

The subject of this assay is JRCSF (CCR5-tropic). The assay is described as follows: Luciferase assay / single round infection in TZM-bl cells, JRCSF. Type of assay: cell-based, HIV. As to conditions: TZM-bl luciferase indicator cells; FIG. 20. From the text:
FIGS. 10-14. Inhibitory effect of the bivalent molecules of the present invention on HIV spreading. The experiment is based on the activation of the luciferase gene upon infection of TZM-bl cells. X-axis depict 3 different dilutions of a virus stock (HXB2 (CRCX4-trop, virus 89.6 (Dual-trop) or JRCSF (CCR5-trop)) with unknown titer (1×, 5× and 25×). Y-axis depicts the amount of luminescence. Lower luminescence corresponds to greater inhibitory effect of the bivalent molecules of the present invention. (See also Example 4 elsewhere herein).
JRCSF is incubated in the presence of mol 500 in a concentration of 0.2 micrograms/ml and 0.1 micrograms/ml. JRCSF incubated without mol 500 is shown as a control. […]
The experiment is based on the activation of the luciferase gene upon infection of TZM-bl cells with 3 different virus strains (HXB2 (CRCX4-tropic), virus 89.6 (Dual-tropic) or JRCSF (CCR5-tropic)). The more luminescence measured, the greater activation of the luciferase gene has occurred, and the more inefficient the inhibition of infection has been by the molecule of the present invention […]
90 μl of Luciferin (britelite plus Perkin Elmer cat no: 6016761) is added to each well in order to start the chemo-luminescence reaction.
150 μl of the liquid is removed from each well and the luminescence is measured in a FLUO star Omega (BMG LABYECH Gmbh). […]

As to enfuvirtide, the “neutralization of JR-CSF, single round infection, in words” value was “very minor effects”.
